Test system: HMT3522 T4-2 cells
Assay: Affymetrix U133A 2.0 gene expression profiling of T4-2 N-CoR2 cells vs T4-2 vector cells grown on rBM;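 note: total RNA converted to biotin-labelled cRNA, hybridized to arrays and confocally scanned, probe set intensities computed by GC-RMA, genes kept if flagged present in at least 2 of 8 samples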
Format: cell-based, human
Settings: T4-2 N-CoR2 cells on rBM, 6 days
Procedure: HMT3522 T4-2 cells were derived from an epidermal growth factor (EGF)-dependent breast epithelial HMT3522 S-1 cells and an EGF-independent HMT3522 S-2 cells that spontaneously became malignant when injected into nude mice. HMT3522 T4-2 cells were propagated as monolayers on type I collagen-coated plastic surface in chemically defined medium consisting of DMEM:F12 medium (Invitrogen GIBCO), containing 250 ng/ml insulin (Boehringer Mannheim), 10 μg/ml transferrin (Sigma, St. Louis, Mo.), 2.6 ng/ml sodium splenetic (Collaborative Research), 10^−10 M estradiol (Sigma), 1.4×10^−6 M hydrocortisone (Collaborative Research), and 5 μg/ml prolactin (Sigma), as described in J. Cell Biol. 137:231-245 (1997).
Amphotropic retrovirus was produced in modified 293 cells or in Phoenix ampho cells (provided by Professor G. Nolan, Stanford Medical Center) with packaging vectors pCgp and pVSVG to boost viral titer. […] Sorted cells were expanded again in the presence of tetracycline.
To increase the yield of RNA for transcriptional profiling experiments, we grew 2×10^5 cells on top of rBM in a 60-mm tissue culture dish. As described, cells grown on top of rBM formed 3D cellular aggregates similar to those embedded in rBM. […] The cultures were maintained for 6 days before the collection of RNA samples.
Total RNA was extracted from monolayer culture or 3D culture by a modified TR1 reagent procedure as described (Biotechniques 19:942-945 (1995)) and purified using an RNeasy Mini Kit (Qiagen). Gene expression analysis was performed on an Affymetrix Human Genome U133A 2.0 GeneChip platform containing 22,283 probes according to the manufacturer's protocol (Affymetrix). Twenty micrograms of total RNA from each sample was processed to produce biotinylated cRNA targets. After hybridization, washing and staining arrays were scanned using a confocal scanner (Affymetrix). The hybridization intensity data was processed using the GeneChip Operating software (Affymetrix). Affymetrix .cel files (probe intensity files) were processed with ArrayAssist Lite (v3.4, Stratagene). The files were imported and processed with the GC-RMA algorithm to yield probe set intensities and additionally, Affymetrix Preset, Absent, Marginal flags were computed. These values were exported in .chp files, which were subsequently imported into the Partek Genomics Suite software (v6.2, Partek). The genes were filtered based on the Affymetrix P/A/M flags to retain only those genes that were present in at least 2 of the 8 samples.

N-CoR2
MEAN INTENSITY (N) 33304_at ISG20: 482.12
MEAN INTENSITY (N) 38037_at HBEGF: 361.24
MEAN INTENSITY (N) 38043_at FAM3A: 68.61
MEAN INTENSITY (N) 53991_at DENND2A: 20.60
MEAN INTENSITY (N) 200696_s_at GSN: 914.82
MEAN INTENSITY (N) 200821_at LAMP2: 347.91
MEAN INTENSITY (N) 200914_x_at KTN1: 343.43
MEAN INTENSITY (N) 201007_at HADHB: 7136.54
MEAN INTENSITY (N) 201132_at HNRPH2: 143.04
MEAN INTENSITY (N) 201215_at PLS3: 411.68
MEAN INTENSITY (N) 201472_at VBP1: 161.81
MEAN INTENSITY (N) 201540_at FHL1: 1059.88
MEAN INTENSITY (N) 201661_s_at ACSL3: 24.61
MEAN INTENSITY (N) 201864_at GDI1: 358.31
MEAN INTENSITY (N) 201865_x_at NR3C1: 332.55
MEAN INTENSITY (N) 201887_at IL13RA1: 93.97
MEAN INTENSITY (N) 201917_s_at SLC25A36: 28.72
MEAN INTENSITY (N) 201996_s_at SPEN: 72.47
MEAN INTENSITY (N) 202169_s_at AASDIIPPT: 25.30
MEAN INTENSITY (N) 202277_at SPTLC1: 110.99
MEAN INTENSITY (N) 202351_at ITGAV: 510.51
MEAN INTENSITY (N) 202371_at TCEAL4: 269.43
MEAN INTENSITY (N) 202376_at SERPINA3: 196.67
MEAN INTENSITY (N) 202378_s_at LEPROT: 228.55
MEAN INTENSITY (N) 202411_at IFI27: 155.11
MEAN INTENSITY (N) 202439_s_at IDS: 270.52
MEAN INTENSITY (N) 202602_s_at HTATSF1: 79.70
MEAN INTENSITY (N) 202829_s_at SYBL1: 38.13
MEAN INTENSITY (N) 202923_s_at GCLC: 167.13
MEAN INTENSITY (N) 203042_at LAMP2: 638.66
MEAN INTENSITY (N) 203156_at AKAP11: 21.24
MEAN INTENSITY (N) 203186_s_at S100A4: 227.62
MEAN INTENSITY (N) 203303_at DYNLT3: 44.35
MEAN INTENSITY (N) 203453_at SCNN1A: 142.26
MEAN INTENSITY (N) 203780_at EVA1: 133.29
MEAN INTENSITY (N) 203821_at HBEGF: 977.38
MEAN INTENSITY (N) 203917_at CXADR: 71.25
MEAN INTENSITY (N) 204020_at PURA: 200.32
MEAN INTENSITY (N) 204097_s_at RBMX2: 21.99
MEAN INTENSITY (N) 204343_at ABCA3: 38.38
MEAN INTENSITY (N) 204351_at S100P: 180.28
MEAN INTENSITY (N) 204533_at CXCL10: 24.04
MEAN INTENSITY (N) 204584_at L1CAM: 327.45
MEAN INTENSITY (N) 204602_at DKK1: 259.47
MEAN INTENSITY (N) 204881_s_at UGCG: 120.86
MEAN INTENSITY (N) 204976_s_at AMMECR1: 36.28
MEAN INTENSITY (N) 204981_at SLC22A18: 205.14
MEAN INTENSITY (N) 205097_at SLC26A2: 85.76
MEAN INTENSITY (N) 205128_x_at PTGS1: 125.00
MEAN INTENSITY (N) 205220_at GPR109B: 645.95
MEAN INTENSITY (N) 205315_s_at SNTB2: 87.78
MEAN INTENSITY (N) 205363_at BBOX1: 120.76
MEAN INTENSITY (N) 205428_s_at CALB2: 143.13
MEAN INTENSITY (N) 205569_at LAMP3: 64.51
MEAN INTENSITY (N) 205595_at DSG3: 177.64
MEAN INTENSITY (N) 205623_at ALDH3A1: 77.90
MEAN INTENSITY (N) 205709_s_at CDS1: 42.93
MEAN INTENSITY (N) 205767_at EREG: 183.71
MEAN INTENSITY (N) 205809_s_at WASL: 77.44
MEAN INTENSITY (N) 205900_at KRT1: 95.82
MEAN INTENSITY (N) 206295_at IL18: 188.27
MEAN INTENSITY (N) 206342_x_at IDS: 267.58
MEAN INTENSITY (N) 206645_s_at NR0B1: 107.59
MEAN INTENSITY (N) 207719_x_at CEP170: 21.69
MEAN INTENSITY (N) 207941_s_at RNPC2: 78.71
MEAN INTENSITY (N) 208241_at NRG1: 18.19
MEAN INTENSITY (N) 209022_at STAG2: 24.13
MEAN INTENSITY (N) 209028_s_at ABI1: 109.59
MEAN INTENSITY (N) 209194_at CETN2: 187.44
MEAN INTENSITY (N) 209289_at NFIB: 64.90
MEAN INTENSITY (N) 209726_at CA11: 105.08
MEAN INTENSITY (N) 209792_s_at KLK10: 505.96
MEAN INTENSITY (N) 210367_s_at PTGES: 246.35
MEAN INTENSITY (N) 210387_at HIST1H2BG: 579.17
MEAN INTENSITY (N) 211122_s_at CXCL11: 12.87
MEAN INTENSITY (N) 211343_s_at COL13A1: 88.75
MEAN INTENSITY (N) 211612_s_at IL13RA1: 104.96
MEAN INTENSITY (N) 211671_s_at NR3C1: 263.10
MEAN INTENSITY (N) 212007_at UBXD2: 117.00
MEAN INTENSITY (N) 212221_x_at IDS: 571.11
MEAN INTENSITY (N) 212223_at IDS: 186.65
MEAN INTENSITY (N) 212414_s_at SEPT6: 68.28
MEAN INTENSITY (N) 212415_at SEPT6: 11.03
MEAN INTENSITY (N) 212510_at GPD1L: 22.53
MEAN INTENSITY (N) 212531_at LCN2: 420.45
MEAN INTENSITY (N) 212605_s_at: 41.36
MEAN INTENSITY (N) 212616_at CHD9: 17.34
MEAN INTENSITY (N) 212622_at TMEM41B: 26.02
MEAN INTENSITY (N) 212640_at PTPLB: 459.88
MEAN INTENSITY (N) 213016_at: 34.12
MEAN INTENSITY (N) 213083_at SLC35D2: 234.84
MEAN INTENSITY (N) 213135_at TIAM1: 24.42
MEAN INTENSITY (N) 213229_at DICER1: 464.53
MEAN INTENSITY (N) 213294_at: 18.29
MEAN INTENSITY (N) 213593_s_at TRA2A: 34.25
MEAN INTENSITY (N) 213729_at PRPF40A: 15.54
MEAN INTENSITY (N) 214022_s_at IFITM1: 4135.74
MEAN INTENSITY (N) 214112_s_at CXorf40A: 479.14
MEAN INTENSITY (N) 214718_at GATAD1: 33.09
MEAN INTENSITY (N) 214722_at NOTCH2NL: 159.38
MEAN INTENSITY (N) 215206_at EXT1: 106.70
MEAN INTENSITY (N) 215245_x_at FMR1: 78.43
MEAN INTENSITY (N) 215813_s_at PTGS1: 76.88
MEAN INTENSITY (N) 216095_x_at MTMR1: 318.26
MEAN INTENSITY (N) 216942_s_at CD58: 34.65
MEAN INTENSITY (N) 217388_s_at KYNU: 634.02
MEAN INTENSITY (N) 217813_s_at SPIN: 59.32
MEAN INTENSITY (N) 217947_at CMTM6: 498.31
MEAN INTENSITY (N) 217948_at: 706.40
MEAN INTENSITY (N) 217975_at WBP5: 441.28
MEAN INTENSITY (N) 218053_at PRPF40A: 132.43
MEAN INTENSITY (N) 218085_at CHMP5: 84.03
MEAN INTENSITY (N) 218086_at NPDC1: 330.55
MEAN INTENSITY (N) 218163_at MCTS1: 521.74
MEAN INTENSITY (N) 218237_s_at SLC38A1: 608.07
MEAN INTENSITY (N) 218668_s_at RAP2C: 54.25
MEAN INTENSITY (N) 218986_s_at FLJ20035: 29.34
MEAN INTENSITY (N) 219001_s_at WDR32: 26.25
MEAN INTENSITY (N) 219010_at C1orf106: 585.64
MEAN INTENSITY (N) 219045_at RHOF: 540.25
MEAN INTENSITY (N) 219351_at TRAPPC2: 71.62
MEAN INTENSITY (N) 219356_s_at CHMP5: 242.88
MEAN INTENSITY (N) 219956_at GALNT6: 147.85
MEAN INTENSITY (N) 219995_s_at FLJ13841: 795.33
MEAN INTENSITY (N) 221553_at RP11-217II1.1: 90.64
MEAN INTENSITY (N) 221581_s_at LAT2: 163.24
MEAN INTENSITY (N) 221766_s_at FAM46A: 25.10
MEAN INTENSITY (N) 221829_s_at TNPO1: 213.54
MEAN INTENSITY (N) 221841_s_at KLF4: 264.55
MEAN INTENSITY (N) 221844_x_at: 96.74
MEAN INTENSITY (N) 222242_s_at KLK5: 26.38
MEAN INTENSITY (N) 222266_at C19orf2: 25.69

— patent US8257928B2, “Methods for predicting and treating tumors resistant to drug, immunotherapy and radiation” (The Regents of the University of California, priority 2008, dated 2012)
